Values of other authors in patent US6339063B1, “9a-azalides as veterinary antimicrobial agents” (Merck & Co., Inc., priority 1997, dated 2002).

Tested on: Pasteurella multocida
Details: as said in U.S. Pat. Nos. 4,474,768, 4,464,527 and 4,526,889

Row | Structure (SMILES) | activity against Pasteurella multocida in vitro
1 | CCC1OC(=O)C(C)C(OC2CC(C)(OC)C(O)C(C)O2)C(C)C(OC2OC(C)CC(N(C)C)C2O)C(C)(O)CC(C)CN(C)C(C)C(O)C1(C)O (stereo not drawn) [4″-epi-azithromycin] | active
2 | CC[C@H]1OC(=O)[C@H](C)[C@@H](O[C@H]2C[C@@](C)(OC)[C@@H](O)[C@H](C)O2)[C@H](C)[C@@H](O[C@@H]2O[C@H](C)C[C@H](N(C)C)[C@H]2O)[C@](C)(O)C[C@@H](C)CN(C)[C@H](C)[C@@H](O)[C@]1(C)O [azithromycin, 9-deoxo-9a-aza-9a-methyl-9a-homoerythromycin A] | active
